The source of these data is article PMC7160673, “A Degenerate Peptide Library Approach to Reveal Sequence Determinants of Methyllysine-Driven Protein Interactions” (Frontiers in Cell and Developmental Biology, 2020).

What all share (format): binding
Assay [1] relates to 53BP1 TTD. As to the kind of experiment: Histone peptide microarray, 53BP1 TTD. Particulars: 53BP1 TTD hits, average signal per peptide. An outline of the steps:
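Histone peptides were printed as microarrays and probed with protein or antibody in 25 mM HEPES pH 7.5, 100 mM NaCl, 0.5% BSA (w/v), 0.1% NP-40. Between steps, slides were washed 3 × 5 min in PBS with 0.1% Tween-20. Bound GST-tagged protein was detected with anti-GST (1:2,000), then AlexaFluor 647 secondary (1:5,000).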

Assay [2] deals with CST 9733 (anti-H3K27me3). As to the kind of experiment: Histone peptide microarray, CST 9733. The following applies: histone peptide array signal normalized to the highest peptide average per subarray, hits; CST 9733 LOT:14 dilution 1:5,000.
The test system of assay [3] is Millipore #07-449, anti-H3K27me3. The assay can be described thus: Histone peptide microarray, Millipore 07-449. The following applies: Millipore 07-449 (anti-H3K27me3) hits, average signal per peptide.
Assay [4] relates to ABClonal #A2355, anti-H3K4me1. The assay can be described thus: Histone peptide microarray, ABclonal A2355. The following applies: Abclonal A2355 (anti-H3K4me1) hits. How it is done: Peptide microarrays were fabricated using an Aushon 2470 microarrayer and used as described ([Cornett et al., 2017]) with the following modifications. Protein and antibody hybridization steps were performed in buffer containing 25 mM HEPES pH 7.5, 100 mM NaCl, 0.5% BSA (w/v), and 0.1% NP-40. Slides were washed 3 × 5 min in PBS supplemented with 0.1% Tween-20 between each hybridization step. Antibodies used were primary anti-GST (Sigma #7781, 1:2,000 dilution) and an AlexaFluor 647-labeled secondary antibody (Life Technologies A-21245, 1:5,000 dilution). […] Full lists of peptides queried by array analysis are in Supplementary Table S2.

Assay [5] has as its system Active Motif #39161, anti-H3K9me3. The assay can be described thus: Histone peptide microarray, Active Motif 39161. Particulars: Active Motif 39161 (anti-H3K9me3) hits.
Assay [6] has as its system Abcam #ab8895, anti-H3K4me1. As to the kind of experiment: Histone peptide microarray, Abcam ab8895. Particulars: Abcam ab8895 (anti-H3K4me1) hits, average signal per peptide.

Turning to “ACitTK(Me3)QTARK(Ac)STGGK(Ac)APRK(Ac)QL-K(Biot)-NH2 [H3.1Cit2K4me3K9acK14acK18ac]”, the “Avg Signal” value was determined as 0.1358 in assay [1]; 0.00661 in assay [2]; 0.0318 in assay [3]; 0.0002223 in assay [4]; 0.03654 in assay [5].
Take “AR(Me2a)TK(Me2)QTARKSTGGKAPRKQL-K(Biot)-NH2 [H3.1R2me2aK4me2]”: the “Avg Signal” value is given as 0.2614 in assay [1]; 0.008316 in assay [3]; 0.2655 in assay [6]; 0.325 in assay [4]; 0.0008405 in assay [5].
For “AR(Me2a)TKQTARKSTGGKAPRKQL-K(Biot)-NH2 [Peptide H3.1R2me2a]”, in that order: 0.05357, 0.004979, 0.1119, 0.0139 and 0.00368.
For “AR(Me2a)pTK(Me3)QTARKSTGGKAPRKQL-K(Biot)-NH2 [H3.1R2me2aT3pK4me3]”, the “Avg Signal” value in assay [1] is 0.03111; in assay [3], 0.007597; in assay [6], 0.001405; in assay [4], 0.002084.
For the substance “AR(Me2s)TK(Me2)QTARKSTGGKAPRKQL-K(Biot)-NH2 [H3.1R2me2sK4me2]”, the “Avg Signal” value in assay [1] is 0.2755; in assay [2], 0.003211; in assay [6], 0.2778; in assay [4], 0.3527.
On to “AR(Me)TK(Me2)QTARKSTGGKAPRKQL-K(Biot)-NH2 [H3.1R2me1K4me2]”, for which the “Avg Signal” value in assay [1] worked out at 0.4867; in assay [2] it was 0.0008431; in assay [6], 0.2976; in assay [4], 0.4048; in assay [5] it was 0.0007938.
In the case of “ARTK(Ac)QTARKSTGGK(Ac)APRK(Ac)QL-K(Biot)-NH2 [H3.1K4acK14acK18ac]”, the “Avg Signal” value in assay [1] is recorded as 0.1071; in assay [3], 0.004978; in assay [6] it was 0.001503; in assay [4], 0.005007.
For “ARTK(Me2)QTARK(Ac)STGGK(Ac)APRK(Ac)QL-K(Biot)-NH2 [H3.1K4me2K9acK14acK18ac]”, in that order: 0.5398, 0.02042, 0.4999 and 0.4093.
For “ARTK(Me2)QpTARK(Ac)STGGK(Ac)APRK(Ac)QL-K(Biot)-NH2 [H3.1K4me2T6pK9acK14acK18ac]”, the “Avg Signal” value was found to be 0.3467 in assay [1], 0.0006457 in assay [2], 0.2093 in assay [6] and 0.3869 in assay [4].
“ARTK(Me2)QpTARKSTGGKAPRKQL-K(Biot)-NH2 [Peptide H3.1K4me2T6p]”: the “Avg Signal” value in assay [1] came to 0.2267; in assay [2] it was 0.0001379; in assay [6], 0.1917; in assay [4] it was 0.3499; in assay [5] it was 0.000965.
On to “ARTK(Me3)QTARK(Ac)pSTGGK(Ac)APRK(Ac)QL-K(Biot)-NH2 [H3.1K4me3K9acS10pK14acK18ac]”, for which the “Avg Signal” value in assay [1] turned out to be 0.1468; in assay [2], 0.002027; in assay [3], 0.01919; in assay [4] it was 0.02489; in assay [5], 0.01388.
Turning to “ARTK(Me)QTARK(Ac)STGGKAPRK(Ac)QL-K(Biot)-NH2 [H3.1K4me1K9acK18ac]”, the “Avg Signal” value in assay [1] came to 0.06582; in assay [6] it was 0.7729; in assay [4], 0.6625; in assay [5], 0.0008903.
Take “ARTK(Me)QTARKSTGGKAPRK(Ac)QL-Peg-Biot [H3.1K4me1K18ac]”: the “Avg Signal” value in assay [2] came out at 1.355e-5; in assay [3], 0.002272; in assay [6] it was 0.7343; in assay [4], 0.5708.
On to “ARTKQTARK(Ac)STGGK(Ac)APRK(Ac)QL-K(Biot)-NH2 [H3.1K9acK14acK18ac]”, for which the “Avg Signal” value is 0.1031 in assay [1], 0.2691 in assay [6], 0.01044 in assay [4] and 0.001438 in assay [5].
“Ac-APRKQLAT-NleAARKSAPS-Peg-Biot [Peptide H3.3K23-Nle]”: the “Avg Signal” value in assay [2] is 0.0003783; in assay [3], 0.001042; in assay [4] it was 0.0003163; in assay [5] it was 0.003975.
Consider “Ac-APRKQLATKAARK(Me2)pSAPSTGG-Peg-Biot [H3.3K27me2S28p]”, for which the “Avg Signal” value in assay [2] was 0.004223; in assay [3], 0.003767; in assay [4] it was 0.002617; in assay [5] it was 0.009021.
As to “Ac-GKGGAKRHRK(Me2)VLRDNIQ-Peg-Biot [Peptide H4K20me2]”, the “Avg Signal” value in assay [1] came out at 1; in assay [2], 0.000354; in assay [6], 0.06608; in assay [4] it was 0.04168; in assay [5], 0.01321.
“Ac-SGRGK(Ac)GGK(Me)GLGK(Ac)GGAK(Ac)RHRKVLR-Peg-Biot [H4K5acK8me1K12acK16ac]”: the “Avg Signal” value came out at 7.434e-5 in assay [2], 0.006645 in assay [6], 0.003516 in assay [4] and 0.001214 in assay [5].
Consider “Ac-SGRGK(Ac)GGKGLGK(Ac)GGAKRHRKVLR-Peg-Biot [Peptide H4K5acK12ac]”, for which the “Avg Signal” value in assay [1] stood at 0.08013; in assay [3], 0.01271; in assay [6] it was 0.0343; in assay [4], 0.01286; in assay [5], 0.02456.
Consider “Ac-SGRGKGGKGLGK(Me)GGAKRHRKVLR-Peg-Biot [Peptide H4K12me1]”, for which the “Avg Signal” value in assay [2] was 0.0001351; in assay [3] it was 0.0009635; in assay [6], 0.009402; in assay [4], 0.01394; in assay [5], 0.001118.
Regarding “Ac-SGRGKGGKGLGKGGAK(Ac)RHRKVLR-Peg-Biot [Peptide H4K16ac]”, the “Avg Signal” value in assay [1] is on record as 0.07097; in assay [3], 0.001899; in assay [6] it was 0.0007834; in assay [4], 0.00197.
As for “Ac-SGRGQGGQGLGK(Ac)GGAQRHRQVLR-Peg-Biot [H4K12acK5QK8QK16QK20Q]”, the “Avg Signal” value in assay [2] amounted to 0.0003661; in assay [3], 0.0006189; in assay [6], 0.02356; in assay [4], 0.0006964; in assay [5], 0.02202.
On to “Ac-pSGR(Me2a)GK(Ac)QGGKARAKAKTR-Peg-Biot [H2AS1pR3me2aK5ac]”, for which the “Avg Signal” value is on record as 0.1102 in assay [1]; 0.0004026 in assay [2]; 0.08644 in assay [6]; 0.05587 in assay [4]; 0.0003455 in assay [5].
On to “KSAPSpTGGVK(Me)KPHRYRPGT-G-K(Biot)-NH2 [H3.3K36meT32p]”, for which the “Avg Signal” value in assay [2] is 0.002226; in assay [3], 0.0077; in assay [6], 0.005437; in assay [4], 0.00279; in assay [5] it was 0.00231.
